Measured values taken from patent publication EP4696306A1, “ADENOSINE TRIPHOSPHATE SECRETION INHIBITOR, HEPATIC STELLATE CELL ACTIVATION INHIBITOR, HEPATIC STELLATE CELL DEACTIVATOR, HEPATIC FIBROSIS THERAPEUTIC AGENT, NON-ALCOHOLIC STEATOHEPATITIS THERAPEUTIC AGENT, PSORIASIS THERAPEUTIC AGENT, AND USE OF COMPOUND FOR PRODUCING ADENOSINE TRIPHOSPHATE …” (KURUME UNIVERSITY, priority 2023, dated 2024).

How the values were obtained:
[1] = test system: human epidermal keratinocytes; experiment: ATP secretion promoted by ionomycin in keratinocytes; type: cell-based
Protocol: Human epidermal keratinocytes (Cryopreserved HEK, Lot 1758, Cell Applications Inc.) were cultured using an Epivita Keratinocyte Growth Medium Kit according to the manufacturer's instructions. The procedure was as follows. A supplement medium was added to a hydrocortisone-containing basal medium included in the medium preparation kit to prepare a complete medium. The medium in the dish was removed by aspiration. The cells were washed with 5 ml of BSS (Gbco), and then the BSS was removed by aspiration. After addition of 5 to 6 ml of trypsin/EDTA solution (Gbco), the dish was incubated at 37°C for 2 minutes. After addition of 5 ml of trypsin neutralization solution, the resulting cell suspension was transferred into two 15-ml Falcon tubes, and centrifuged at 200 × g for 5 minutes. The supernatant was removed by aspiration, and the pelleted cell cluster was suspended in 2 ml of the medium at 4.5 × 10^5 cells/ml. An aliquot of the resulting cell suspension was cryopreserved, while another aliquot was cultured and subjected to measurement.
ATP secretion by human epidermal keratinocytes (hereinafter referred to as "keratinocytes") was measured. Regarding control solutions, Krebs-Ringer HEPES supplemented with 0.2% BSA and 25 mM glucose (hereinafter also referred to as "Krebs/Iono(-)") was used as a negative control, and a solution prepared by adding 5 µM ionomycin to this solution (hereinafter also referred to as "Krebs/Iono(+)") was used as a positive control for ATP secretion. Ionomycin is a Ca^2+ ionophore. Addition of ionomycin to cells is known to promote influx of extracellular Ca^2+ into the cells to increase the intracellular Ca^2+ concentration, resulting in enhancement of ATP secretion. Test solutions were prepared by adding clodronate to Krebs/Iono(-) or Krebs/Iono(+) to a final concentration of 0.1 µM (hereinafter also referred to as "Clo/Iono(-)" or "Clo/Iono(+)", respectively) (N = 3).
Keratinocytes were cultured at 2.5 × 10^4 cells/well in a 24-well plate at 37°C in 5% CO2 for 4 days. The medium was removed by aspiration, replaced with Krebs/Iono(-) or Clo/Iono(-), and incubated at 37°C for 6 hours. These solutions were then removed by aspiration, and the content of each well incubated with Krebs/Iono(-) was replaced with 300 µl of a control solution (Krebs/Iono(-) or Krebs/Iono(+)), while the content of each well incubated with Clo/Iono(-) was replaced with 300 µl of a test solution (Clo/Iono(-) or Clo/Iono(+)). After further incubation at 37°C for 20 minutes, 200 µl of the supernatant was collected. The collected supernatant was immediately treated on a heat block at 95°C for 10 minutes, to inactivate ectonucleotidase. ATP in the supernatant was quantified using a Dojindo ATP assay kit - Luminescence (manufactured by Dojindo Laboratories).
After culturing keratinocytes, the medium was removed by aspiration, and replaced with Krebs/Iono(-), or Krebs/Iono(-) supplemented with 10 µM imeglimin, 0.1 µM EPA, 1 µM EPA, or 10 µM clodronate, followed by incubation for 6 hours. Subsequently, the solution was replaced with either a control solution (Krebs/Iono(-) or Krebs/Iono(+)) or a test solution (Krebs/Iono(+) supplemented with 10 µM imeglimin, 0.1 µM EPA, 1 µM EPA, or 10 µM clodronate), followed by incubation at 37°C for 20 minutes and then collection of 200 µl of the supernatant. The collected supernatant was immediately treated on a heat block at 95°C for 10 minutes to inactivate ectonucleotidase. ATP in the supernatant was quantified using a Dojindo ATP assay kit - Luminescence (manufactured by Dojindo Laboratories).
Keratinocytes were cultured in the same manner as in Example 1, and the medium was replaced with Krebs/Iono(-), Krebs/Iono(-) supplemented with 0.1 µM, 1 µM, or 10 µM imeglimin, or Krebs/Iono(-) supplemented with 0.1 µM, 1 µM, or 10 µM metformin, followed by incubation for 6 hours. […]

[2] = test system: human epidermal keratinocytes; experiment: LPS-stimulated ATP secretion in keratinocytes; type: cell-based; conditions: 18 hours incubation, LPS 10 µg/ml 10 minutes, N = 8
Protocol: Keratinocytes were cultured in the same manner as in Example 1. Keratinocytes were cultured at 2.5 × 10^4 cells/well in a 24-well plate at 37°C in 5% CO2 for 4 days. The medium was replaced with a test solution (Hanks' balanced salt solution (HBSS) (manufactured by Gibco) supplemented with imeglimin, metformin, or clodronate), and then incubation was performed at 37°C in 5% CO2 for 18 hours. Thereafter, LPS (10 µg/ml) was added thereto, and incubation was further carried out for 10 minutes, followed by collection of 200 µl of the supernatant. The supernatant was immediately treated on a heat block at 95°C for 10 minutes, and ATP in the supernatant was quantified using an ATP Assay Kit - Luminescence (manufactured by Dojindo) (N = 8).

[3] = 10 µM, 6 hours incubation, then 20 minutes with ionomycin, N = 4

Compound	ATP secretion promoted by ionomycin ([1]; 5 mM PEP, 20 minutes, N = 4)	ATP secretion promoted by ionomycin ([1]; 10 mM PEP, 20 minutes, N = 4)	concentration exhibiting a relatively strong ATP secretion inhibitory effect ([1]; data not shown)	ATP secretion promoted by ionomycin ([1]; 0.1 µM clodronate, 6 hours incubation, then 20 minutes with 5 µM ionomycin, N = 3)	ATP secretion promoted by ionomycin [1, 3]	ATP secretion upon LPS stimulation ([2]; 10 µM)	ATP secretion inhibitory effect, comparison and concentration dependence ([1]; 0.1 µM, 1 µM, 10 µM, 6 hours incubation, N = 3)	ATP secretion inhibitory effect ([1]; 0.1 µM, 6 hours incubation, N = 3)	time required for production of a strong inhibitory effect ([1]; 1 µM imeglimin)	ATP secretion level relative to that obtained using the control solution ([1]; 1 µM imeglimin, incubation time 2 hours, N = 3)	ATP secretion level relative to that obtained using the control solution ([1]; 1 µM imeglimin, incubation time 6 hours, N = 3)	ATP secretion inhibitory effect compared with reference inhibitors ([1]; 10 µM imeglimin versus 1 µM EPA and 10 µM clodronate)	ATP secretion upon LPS stimulation ([2]; 1 µM)
C=C(OP(=O)(O)O)C(=O)O [PEP, phosphoenolpyruvic acid]	inhibited	inhibited	not less than 3 mM										
O=P(O)(O)C(Cl)(Cl)P(=O)(O)O [clodronate]				inhibits the ATP secretion promoted by ionomycin	inhibited	almost completely inhibited							
C[C@H]1N=C(N(C)C)N=C(N)N1 [imeglimin]					inhibited	almost completely inhibited	slightly higher ATP secretion inhibitory effect than metformin	exhibit an ATP secretion inhibitory effect	about 6 hours	about 85%	about 40%	comparable to those of 1 µM EPA and 10 µM clodronate	almost completely inhibited
